# Assay results reported in US11472791B2 (Incyte Corporation, priority 2019, dated 2022).
# pIC50: −log10 of the molar value.
# Assays:
# Assay type in all cases: biochemical
# Details in all cases: 1 mM ATP
# [1] = target: CDK2/Cyclin E1 (Homo sapiens (Human), UniProt P24941); experiment: CDK2/Cyclin E1 HTRF enzyme activity assay
# Protocol: Assays are conducted in white 384-well polystyrene plates in a final reaction volume of 8 μL. […] HTRF signals are read after 1 hour at room temperature on a PHERAstar FS plate reader (BMG Labtech). Data is analyzed with IDBS XLFit and GraphPad Prism 5.0 software using a three or four parameter dose response curve to determine IC50 for each compound.
# [2] = target: human JAK1 (Homo sapiens, UniProt P23458); experiment: JAK inhibitory activity assay (JAK1)
# Protocol: (§1) Compounds herein were tested for inhibitory activity of JAK targets according to the following in vitro assay described in Park et al., Analytical Biochemistry 1999, 269, 94-104. The catalytic domains of human JAK1 (a.a. 837-1142), Jak2 (a.a. 828-1132) and Jak3 (a.a. 781-1124) with an N-terminal His tag were expressed using baculovirus in insect cells and purified. The catalytic activity of JAK1 and JAK2 was assayed by measuring the phosphorylation of a biotinylated peptide. The phosphorylated peptide was detected by homogenous time resolved fluorescence (HTRF). Each enzyme reaction was carried out with or without test compound (11-point dilution), JAK enzyme, 500 nM peptide, adenosine triphosphate (ATP; 1 mM), and 2.0% dimethyl sulfoxide (DMSO) in assay buffer (50 mM Tris (pH 7.8) buffer, 100 mM NaCl, 5 mM DTT, and 0.1 mg/mL (0.01%) BSA). The peptide substrate (Biotin-[…]) was custom synthesized by Biosource International. Reactions were carried out at room temperature for 1 hour and then stopped with 10 μL 45 mM EDTA, 200 nM SA-APC, 4 nM Eu-Py20 in assay buffer (Perkin Elmer, Boston, Mass.). After incubation for 30 minutes at room temperature, the HTRF signal was measured on a PheraStar plate reader.
# [3] = target: JAK2 (Homo sapiens (Human), UniProt O60674); experiment: JAK inhibitory activity assay (JAK2)
# Protocol: as §1
# JAK2, sequence (O60674 828-1132): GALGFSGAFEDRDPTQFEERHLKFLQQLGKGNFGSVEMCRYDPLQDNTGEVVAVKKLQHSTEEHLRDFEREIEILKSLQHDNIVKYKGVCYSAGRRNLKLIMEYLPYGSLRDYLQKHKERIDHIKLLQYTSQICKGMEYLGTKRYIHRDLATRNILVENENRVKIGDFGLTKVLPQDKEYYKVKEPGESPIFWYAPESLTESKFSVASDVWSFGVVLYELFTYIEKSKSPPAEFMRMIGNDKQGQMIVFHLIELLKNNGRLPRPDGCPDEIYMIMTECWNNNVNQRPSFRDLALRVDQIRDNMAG
SMILES,pIC50 [1],pIC50 [2],pIC50 [3]
"Cn1cc(S(=O)(=O)N2CCC(Nc3ncc(C(F)(F)F)c(-c4cnn(CC(F)(F)F)c4)n3)CC2)cn1 [Example 1, N-(1-((1-Methyl-1H-pyrazol-4-yl)sulfonyl)piperidin-4-yl)-4-(1-(2,2,2-trifluoroethyl)-1H-pyrazol-4-yl)-5-(trifluoromethyl)pyrimidin-2-amine]",> 7.30,≤ 5.00,≤ 5.00
"CS(=O)(=O)N1CCC(Nc2ncc(C(F)(F)F)c(-c3cnn(CC(F)(F)F)c3)n2)CC1 [Example 10, N-(1-(Methylsulfonyl)piperidin-4-yl)-4-(1-(2,2,2-trifluoroethyl)-1H-pyrazol-4-yl)-5-(trifluoromethyl)pyrimidin-2-amine]",> 7.30,≤ 5.00,≤ 5.00
"CNCc1ccc(-n2cc(-c3nc(N[C@H]4CCN(S(=O)(=O)c5cn(C)cn5)C[C@H]4C)ncc3C#N)cn2)c(C)n1 [Example 272, 2-(((3R,4S)-3-Methyl-1-((1-methyl-1H-imidazol-4-yl)sulfonyl)piperidin-4-yl)amino)-4-(1-(2-methyl-6-((methylamino)methyl)pyridin-3-yl)-1H-pyrazol-4-yl)pyrimidine-5-carbonitrile]",> 7.30,,
"CCNCc1ccc(-n2cc(-c3nc(N[C@H]4CCN(S(=O)(=O)c5cn(C)cn5)C[C@H]4C)ncc3C#N)cn2)c(C)n1 [Example 273, 4-(1-(6-((Ethylamino)methyl)-2-methylpyridin-3-yl)-1H-pyrazol-4-yl)-2-(((3R,4S)-3-methyl-1-((1-methyl-1H-imidazol-4-yl)sulfonyl)piperidin-4-yl)amino)pyrimidine-5-carbonitrile]",> 7.30,,
"Cc1nc(CNC(C)C)ccc1-n1cc(-c2nc(NC3CCN(S(=O)(=O)c4cn(C)cn4)CC3)ncc2Cl)cn1 [Example 274, 5-Chloro-4-(1-(6-((isopropylamino)methyl)-2-methylpyridin-3-yl)-1H-pyrazol-4-yl)-N-(1-((1-methyl-1H-imidazol-4-yl)sulfonyl)piperidin-4-yl)pyrimidin-2-amine]",> 7.30,,
"Cc1nc(CNC(C)C)ccc1-n1cc(-c2nc(NC3CCN(S(=O)(=O)c4cn(C)cn4)CC3)ncc2C(F)(F)F)cn1 [Example 275, 4-(1-(6-((Isopropylamino)methyl)-2-methylpyridin-3-yl)-1H-pyrazol-4-yl)-N-(1-((1-methyl-1H-imidazol-4-yl)sulfonyl)piperidin-4-yl)-5-(trifluoromethyl)pyrimidin-2-amine]",> 7.30,,
"Cc1nc(CNC(C)C)ccc1-n1cc(-c2nc(N[C@H]3CCN(S(=O)(=O)c4cn(C)cn4)C[C@H]3C)ncc2C(F)(F)F)cn1 [Example 276, 4-(1-(6-((Isopropylamino)methyl)-2-methylpyridin-3-yl)-1H-pyrazol-4-yl)-N-((3R,4S)-3-methyl-1-((1-methyl-1H-imidazol-4-yl)sulfonyl)piperidin-4-yl)-5-(trifluoromethyl)pyrimidin-2-amine]",> 7.30,,
"Cc1nc(CNC(C)(C)C)ccc1-n1cc(-c2nc(NC3CCN(S(=O)(=O)C4CC4)CC3)ncc2C#N)cn1 [Example 277, 4-(1-(6-((tert-Butylamino)methyl)-2-methylpyridin-3-yl)-1H-pyrazol-4-yl)-2-((1-(cyclopropylsulfonyl)piperidin-4-yl)amino)pyrimidine-5-carbonitrile]",> 7.30,,
"Cc1nc(CNC(C)C)ccc1-n1cc(-c2nc(N[C@H]3CCN(S(=O)(=O)c4cn(C)cn4)C[C@H]3C)ncc2C#N)cn1 [Example 278, 4-(1-(6-((Isopropylamino)methyl)-2-methylpyridin-3-yl)-1H-pyrazol-4-yl)-2-(((3R,4S)-3-methyl-1-((1-methyl-1H-imidazol-4-yl)sulfonyl)piperidin-4-yl)amino)pyrimidine-5-carbonitrile]",> 7.30,,
"COC(=O)N[C@@H]1CC[C@@H](NCc2ccc(-n3cc(-c4nc(NC5CCN(S(C)(=O)=O)CC5)ncc4C#N)cn3)c(Cl)c2)C1 [Example 279, Methyl ((1R,3R)-3-((3-chloro-4-(4-(5-cyano-2-((1-(methylsulfonyl)piperidin-4-yl)amino)pyrimidin-4-yl)-1H-pyrazol-1-yl)benzyl)amino)cyclopentyl)carbamate]",> 7.30,,
"COC(=O)N[C@H]1CC[C@@H](NCc2ccc(-n3cc(-c4nc(NC5CCN(S(C)(=O)=O)CC5)ncc4C#N)cn3)c(Cl)c2)C1 [Example 280, Methyl ((1S,3R)-3-((3-chloro-4-(4-(5-cyano-2-((1-(methylsulfonyl)piperidin-4-yl)amino)pyrimidin-4-yl)-1H-pyrazol-1-yl)benzyl)amino)cyclopentyl)carbamate]",> 7.30,,
"COC(=O)N[C@H]1CCC[C@@H]1NCc1ccc(-n2cc(-c3nc(NC4CCN(S(C)(=O)=O)CC4)ncc3C#N)cn2)c(Cl)c1 [Example 281, Methyl ((1,S,2S)-2-((3-chloro-4-(4-(5-cyano-2-((1-(methylsulfonyl)piperidin-4-yl)amino)pyrimidin-4-yl)-1H-pyrazol-1-yl)benzyl)amino)cyclopentyl)carbamate]",> 7.30,,
"COC(=O)NCC1(NCc2ccc(-n3cc(-c4nc(NC5CCN(S(C)(=O)=O)CC5)ncc4C#N)cn3)c(Cl)c2)CCCC1 [Example 282, Methyl ((1-((3-chloro-4-(4-(5-cyano-2-((1-(methylsulfonyl)piperidin-4-yl)amino)pyrimidin-4-yl)-1H-pyrazol-1-yl)benzyl)amino)cyclopentyl)methyl)carbamate]",> 7.30,,
"C[C@]1(O)CC[C@@H](NCc2ccc(-n3cc(-c4nc(NC5CCN(S(=O)(=O)C6CC6)CC5)ncc4C#N)cn3)c(Cl)c2)CC1 [Example 283, 4-(1-(2-Chloro-4-((((1s,4s)-4-hydroxy-4-methylcyclohexyl)amino)methyl)phenyl)-1H-pyrazol-4-yl)-2-((1-(cyclopropylsulfonyl)piperidin-4-yl)amino)pyrimidine-5-carbonitrile]",> 7.30,,
"C[C@]1(O)CC[C@H](NCc2ccc(-n3cc(-c4nc(NC5CCN(S(=O)(=O)C6CC6)CC5)ncc4C#N)cn3)c(Cl)c2)CC1 [Example 284, 4-(1-(2-Chloro-4-((((1r,4r)-4-hydroxy-4-methylcyclohexyl)amino)methyl)phenyl)-1H-pyrazol-4-yl)-2-((1-(cyclopropylsulfonyl)piperidin-4-yl)amino)pyrimidine-5-carbonitrile]",> 7.30,,
"C[C@]1(O)C[C@@H](NCc2ccc(-n3cc(-c4nc(NC5CCN(S(=O)(=O)C6CC6)CC5)ncc4C#N)cn3)c(Cl)c2)C1 [Example 285, 4-(1-(2-Chloro-4-((((1s,3s)-3-hydroxy-3-methylcyclobutyl)amino)methyl)phenyl)-1H-pyrazol-4-yl)-2-((1-(cyclopropylsulfonyl)piperidin-4-yl)amino)pyrimidine-5-carbonitrile]",> 7.30,,
"C[C@]1(O)C[C@H](NCc2ccc(-n3cc(-c4nc(NC5CCN(S(=O)(=O)C6CC6)CC5)ncc4C#N)cn3)c(Cl)c2)C1 [Example 286, 4-(1-(2-Chloro-4-((((1r,3r)-3-hydroxy-3-methylcyclobutyl)amino)methyl)phenyl)-1H-pyrazol-4-yl)-2-((1-(cyclopropylsulfonyl)piperidin-4-yl)amino)pyrimidine-5-carbonitrile]",> 7.30,,
CS(=O)(=O)N1CCC(Nc2ncc(C#N)c(-c3cnn(-c4ccc(CN[C@@H]5CCCC[C@H]5CO)cc4Cl)c3)n2)CC1 [Example 288],> 7.30,,
"CS(=O)(=O)N1CCC(Nc2ncc(C#N)c(-c3cnn(-c4ccc(CN[C@H]5CC[C@@H](CO)CC5)cc4Cl)c3)n2)CC1 [Example 289, 4-(1-(2-chloro-4-((((1s,4s)-4-(hydroxymethyl)cyclohexyl)amino)methyl)phenyl)-1H-pyrazol-4-yl)-2-((1-(methylsulfonyl)piperidin-4-yl)amino)pyrimidine-5-carbonitrile]",> 7.30,,
"CS(=O)(=O)N1CCC(Nc2ncc(C#N)c(-c3cnn(-c4ccc(CNCCN5CCS(=O)(=O)CC5)cc4Cl)c3)n2)CC1 [Example 290, 4-(1-(2-Chloro-4-(((2-(1,1-dioxidothiomorpholino)ethyl)amino)methyl)phenyl)-1H-pyrazol-4-yl)-2-((1-(methylsulfonyl)piperidin-4-yl)amino)pyrimidine-5-carbonitrile]",> 7.30,,
"C[C@@H](O)CNCc1ccc(-n2cc(-c3nc(NC4CCN(S(C)(=O)=O)CC4)ncc3C#N)cn2)c(Cl)c1 [Example 291, (R)-4-(1-(2-Chloro-4-(((2-hydroxypropyl)amino)methyl)phenyl)-1H-pyrazol-4-yl)-2-((1-(methylsulfonyl)piperidin-4-yl)amino)pyrimidine-5-carbonitrile]",> 7.30,,
"C[C@H](O)CNCc1ccc(-n2cc(-c3nc(NC4CCN(S(C)(=O)=O)CC4)ncc3C#N)cn2)c(Cl)c1 [Example 292, (S)-4-(1-(2-Chloro-4-(((2-hydroxypropyl)amino)methyl)phenyl)-1H-pyrazol-4-yl)-2-((1-(methylsulfonyl)piperidin-4-yl)amino)pyrimidine-5-carbonitrile]",> 7.30,,
